The values below come from ChEMBL document CHEMBL5033997, “Macrolide Inspired Macrocycles as Modulators of the IL-17A/IL-17RA Interaction” (J Med Chem, 2021).

The structures appear in SMILES notation.

A short description of the experiment: Inhibition of recombinant human IL-17A/IL-17AR protein-protein interaction using TMB substrate compound added on IL17A precoated plate and followed by IL-17AR addition by ELISA.
Consider `CC[C@H](C)[C@@H]1NC(=O)[C@H](C)[C@@H](O[C@H]2C[C@@](C)(OC)[C@@H](O)[C@H](C)O2)[C@H](C)[C@@H](O[C@@H]2O[C@H](C)C[C@H](N(C)C)[C@H]2O)[C@](C)(O)C[C@@H](C)CN(C)C(=O)C[C@@H](Cc2ccc(NC(=O)[C@H](Cc3ccccc3Cl)NC(=O)Cc3ccccc3)cc2)NC1=O`, for which the IC50 is 2600 nM.

As to `CO[C@]1(C)C[C@H](O[C@H]2[C@H](C)[C@@H](O[C@@H]3O[C@H](C)C[C@H](N(C)C)[C@H]3O)[C@](C)(O)C[C@@H](C)CN(C)C(=O)[C@@H](Cc3ccc(NC(=O)[C@H](Cc4ccccc4Cl)NC(=O)Cc4ccccc4)cc3)NC(=O)C[C@H](C(C)C)NC(=O)[C@@H]2C)O[C@@H](C)[C@@H]1O`, the half-maximal inhibitory concentration (IC50) is over 30000 nM.

Turning to `CO[C@]1(C)C[C@H](O[C@H]2[C@H](C)[C@@H](O[C@@H]3O[C@H](C)C[C@H](N(C)C)[C@H]3O)[C@](C)(O)C[C@@H](C)CN(C)C(=O)C[C@@H](Cc3ccc(NC(=O)[C@H](Cc4ccccc4Cl)NC(=O)Cc4ccc(C)cc4)cc3)NC(=O)[C@H](C(C)C)NC(=O)[C@@H]2C)O[C@@H](C)[C@@H]1O`, the concentration for half-maximal inhibition (IC50) is 243 nM.

For `CO[C@]1(C)C[C@H](O[C@H]2[C@H](C)[C@@H](O[C@@H]3O[C@H](C)C[C@H](N(C)C)[C@H]3O)[C@](C)(O)C[C@@H](C)CN(C)C(=O)C[C@@H](Cc3ccc(NC(=O)[C@H](Cc4ccccc4Cl)NC(=O)Cc4ccccc4)cc3)NC(=O)CC3(CCCC3)CNC(=O)[C@@H]2C)O[C@@H](C)[C@@H]1O`, the half-maximal inhibitory concentration (IC50) is 6760 nM.

As to `CO[C@]1(C)C[C@H](O[C@H]2[C@H](C)[C@@H](O[C@@H]3O[C@H](C)C[C@H](N(C)C)[C@H]3O)[C@](C)(O)C[C@@H](C)CN(C)C(=O)C[C@@H](Cc3ccc(NC(=O)[C@H](Cc4ccccc4Cl)NC(=O)Cc4ccccc4)cc3)NC(=O)[C@H](CC(C)C)NC(=O)[C@@H]2C)O[C@@H](C)[C@@H]1O`, the half-maximal inhibitory concentration (IC50) was found to be 12600 nM.

For `CO[C@]1(C)C[C@H](O[C@H]2[C@H](C)[C@@H](O[C@@H]3O[C@H](C)C[C@H](N(C)C)[C@H]3O)[C@](C)(O)C[C@@H](C)CN(C)C(=O)C[C@@H](Cc3ccc(NC(=O)[C@H](Cc4ccccc4Cl)NC(=O)Cc4ccccc4)cc3)NC(=O)C[C@@H](CC(C)C)NC(=O)[C@@H]2C)O[C@@H](C)[C@@H]1O`, the IC50 was over 30000 nM.

Take `CO[C@]1(C)C[C@H](O[C@H]2[C@H](C)[C@@H](O[C@@H]3O[C@H](C)C[C@H](N(C)C)[C@H]3O)[C@](C)(O)C[C@@H](C)CN(C)C(=O)C[C@@H](Cc3ccc(NC(=O)[C@H](Cc4ccccc4Cl)NC(=O)COc4ccccc4)cc3)NC(=O)[C@H](C(C)C)NC(=O)[C@@H]2C)O[C@@H](C)[C@@H]1O`: the half-inhibitory concentration (IC50) is 1090 nM.

On to `CO[C@]1(C)C[C@H](O[C@H]2[C@H](C)[C@@H](O[C@@H]3O[C@H](C)C[C@H](N(C)C)[C@H]3O)[C@](C)(O)C[C@@H](C)CN(C)C(=O)C[C@@H](Cc3ccc(NC(=O)[C@H](Cc4c(Cl)cccc4Cl)NC(=O)Cc4ccccc4)cc3)NC(=O)[C@H](C(C)C)NC(=O)[C@@H]2C)O[C@@H](C)[C@@H]1O`, for which the IC50 came to 166 nM.

In the case of `CO[C@]1(C)C[C@H](O[C@H]2[C@H](C)[C@@H](O[C@@H]3O[C@H](C)C[C@H](N(C)C)[C@H]3O)[C@](C)(O)C[C@@H](C)CN(C)C(=O)C[C@@H](Cc3ccc(NC(=O)[C@H](Cc4ccccc4F)NC(=O)Cc4ccccc4)cc3)NC(=O)[C@H](C(C)C)NC(=O)[C@@H]2C)O[C@@H](C)[C@@H]1O`, the 50% inhibitory concentration (IC50) was found to be 315 nM.

Consider `CO[C@]1(C)C[C@H](O[C@H]2[C@H](C)[C@@H](O[C@@H]3O[C@H](C)C[C@H](N(C)C)[C@H]3O)[C@](C)(O)C[C@@H](C)CN(C)C(=O)C[C@@H](Cc3ccc(NC(=O)[C@H](Cc4ccccc4Cl)NS(=O)(=O)Cc4ccccc4)cc3)NC(=O)[C@H](C(C)C)NC(=O)[C@@H]2C)O[C@@H](C)[C@@H]1O`, for which the IC50 is 2560 nM.
